Where two headings read alike, the source gives them in different places. Starred links: 1 amine or outer side, 2 acyl side, 3 side chain; linkers in the order of their positions; H or OH if unused. Non-standard residues stand in square brackets, D forms with d. Residues, ends and D or L forms follow the SMILES beside them. Groups on a side chain read outwards from the residue. *: point of attachment. C20 diacid = O=C(O)CCCCCCCCCCCCCCCCCCC(=O)*; C18 diacid = O=C(O)CCCCCCCCCCCCCCCCC(=O)*; γGlu = O=C(O)[C@H](CCC(=O)[*:2])N[*:1]; AEEA = NCCOCCOCC(=O)O; Aib = CC(C)(N)C(=O)O
Key:
Assay type in all cases: cell-based
rat CRF2R α receptor = test: cAMP agonism at rat CRF2R α receptor in A7R5 rat aortic smooth muscle cells (Example 8); conditions: cAMP HTRF, A7R5 rat aortic smooth muscle cell line, 0% HSA
Outline: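 Potency (EC50) is the concentration reaching half-maximal activation, with responses scaled so that 1000 nM urocortin 2 equals 100%. Intracellular cAMP was quantified by homogeneous time-resolved fluorescence at 665/620 nm, 1 h after lysis-buffer reagents. Compound stimulation lasted 30 min at room temperature on 2000 IBMX-treated (2 mM) cells per well in HEPES-buffered HBSS.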

human CRF2α receptor = target: T1, human CRF2α receptor (Homo sapiens, UniProt Q13324); test: cAMP agonism at human CRF2 α receptor in TeloHEAC cells (Example 7); conditions: cAMP HTRF, TeloHEAC cells stably expressing human CRF2 α
T1 construct: expressed in transfected cells; host or cells: TeloHEAC
T1 sequence (Q13324 1-411): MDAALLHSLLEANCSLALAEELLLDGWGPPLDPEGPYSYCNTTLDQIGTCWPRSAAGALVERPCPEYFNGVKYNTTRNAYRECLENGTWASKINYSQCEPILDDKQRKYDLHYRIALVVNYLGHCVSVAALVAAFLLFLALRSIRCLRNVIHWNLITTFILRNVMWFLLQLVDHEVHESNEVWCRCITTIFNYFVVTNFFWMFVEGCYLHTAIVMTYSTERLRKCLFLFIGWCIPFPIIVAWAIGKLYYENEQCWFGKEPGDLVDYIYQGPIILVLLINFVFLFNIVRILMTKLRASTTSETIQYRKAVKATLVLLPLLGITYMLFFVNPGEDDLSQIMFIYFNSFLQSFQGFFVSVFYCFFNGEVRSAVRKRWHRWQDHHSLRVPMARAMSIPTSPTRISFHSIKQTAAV
Outline: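 Cryopreserved cells are thawed, washed and resuspended in IBMX-containing (2 mM) HEPES-buffered HBSS with or without 0.1% HSA. Compound incubation runs 30 min at room temperature with 2000 cells per well, then cAMP is measured by time-resolved FRET. Potency is expressed as EC50, efficacy relative to urocortin 2 at 1000 nM.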

CRF1R receptor = target: T2, CRF1R receptor (Homo sapiens, UniProt P34998); test: cAMP activity at anti-target CRF1R, CRF1R-overexpression CHO cell line (Example 9); conditions: CRF1R-overexpression CHO cell line; for EC50: 0% HSA; for Emax: read-out: Emax (%)
T2 construct: host or cells: CHO-K1 clone 2
T2 sequence (P34998 24-415): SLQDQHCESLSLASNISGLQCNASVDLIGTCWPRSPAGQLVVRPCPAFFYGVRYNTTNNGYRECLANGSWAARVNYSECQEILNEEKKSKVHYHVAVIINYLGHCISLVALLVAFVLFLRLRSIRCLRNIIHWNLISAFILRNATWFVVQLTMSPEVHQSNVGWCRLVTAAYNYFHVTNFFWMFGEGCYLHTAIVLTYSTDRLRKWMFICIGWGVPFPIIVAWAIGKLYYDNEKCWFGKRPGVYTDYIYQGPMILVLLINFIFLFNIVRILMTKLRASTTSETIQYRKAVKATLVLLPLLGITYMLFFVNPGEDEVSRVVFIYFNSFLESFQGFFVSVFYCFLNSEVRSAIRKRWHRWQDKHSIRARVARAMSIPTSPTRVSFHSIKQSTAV
Outline: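 Using thawed CRF1R-overexpressing CHO cells at 2000 per well, compound is applied for 30 min at RT in HBSS/HEPES buffer with IBMX. Cellular cAMP content is determined via HTRF, and percent activity is calculated against 1000 nM UCN2 defined as 100%.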

[1] = 0% HSA, read-out: EC50 [nM], 0% HSA
[2] = 0.1% HSA, read-out: EC50 [nM], 0.1% HSA

| EC50 (rat CRF2R α receptor) | EC50 (human CRF2α receptor; [1]) | EC50 (CRF1R receptor) | Emax (CRF1R receptor) | EC50 (human CRF2α receptor; [2]) | Structure (SMILES) |
| --- | --- | --- | --- | --- | --- |
| 4.73 nM | 0.63 nM | > 1000 nM | 4.68% |  | CC[C@H](C)[C@H](NC(=O)[C@H](CCC(N)=O)NC(=O)[C@H](CCCCNC(=O)COCCOCCNC(=O)COCCOCCNC(=O)CC[C@H](NC(=O)CCCCCCCCCCCCCCCCCCC(=O)O)C(=O)O)NC(=O)[C@H](CC(C)C)NC(=O)[C@H](CCCCN)NC(=O)[C@@H](NC(=O)[C@@H]1CCCN1C(=O)[C@@H](NC(=O)[C@H](CC(=O)O)NC(=O)[C@H](CC(C)C)NC(=O)[C@H](CO)NC(=O)[C@H](CC(C)C)NC(=O)[C@@H](NC(=O)[C@@H](N)Cc1ccccc1)[C@@H](C)O)C(C)C)[C@@H](C)CC)C(=O)N[C@@H](CC(C)C)C(=O)N[C@@H](CC(C)C)C(=O)N[C@@H](CCC(=O)O)C(=O)N[C@@H](CCC(N)=O)C(=O)N[C@@H](CCC(N)=O)C(=O)N[C@@H](CCCCN)C(=O)N[C@@H](CCC(N)=O)C(=O)N[C@@H](CCCCN)C(=O)N[C@@H](CCCCN)C(=O)N[C@@H](CCC(=O)O)C(=O)N[C@@H](CCCNC(=N)N)C(=O)N[C@@H](CCC(N)=O)C(=O)N[C@@H](CCC(N)=O)C(=O)N[C@@H](C)C(=O)N[C@@H](CCC(=O)O)C(=O)N[C@H](C(=O)N[C@@H](CC(N)=O)C(=O)N[C@H](C(=O)N[C@@H](CCC(N)=O)C(=O)N[C@@H](CC(C)C)C(=O)N[C@@H](CC(C)C)C(=O)N[C@@H](CCC(=O)O)C(=O)N[C@@H](CCCNC(=N)N)C(=O)N[C@H](C(N)=O)C(C)C)C(C)C)[C@@H](C)O [compound 63] (H-FTLSLDVPIKLK([AEEA-AEEA-γGlu-C20 diacid])QILLEQQKQKKERQQAETNVQLLERV-NH2) |
| 7.33 nM | 0.61 nM | > 1000 nM | 0.02% |  | CC[C@H](C)[C@H](N)C(=O)N[C@H](C(=O)N[C@@H](CC(C)C)C(=O)N[C@@H](CO)C(=O)N[C@@H](CC(C)C)C(=O)N[C@@H](CC(=O)O)C(=O)N[C@H](C(=O)N1CCC[C@H]1C(=O)N[C@H](C(=O)N[C@@H](CCCCN)C(=O)N[C@@H](CC(C)C)C(=O)N[C@@H](CCCCNC(=O)COCCOCCNC(=O)COCCOCCNC(=O)CC[C@H](NC(=O)CCCCCCCCCCCCCCCCC(=O)O)C(=O)O)C(=O)N[C@@H](CCCCN)C(=O)NC(C)(C)C(=O)N[C@@H](CC(C)C)C(=O)N[C@@H](CC(C)C)C(=O)N[C@@H](CCC(=O)O)C(=O)N[C@@H](CCC(N)=O)C(=O)N[C@@H](CCC(=O)O)C(=O)N[C@@H](CCCNC(=N)N)C(=O)N[C@@H](CCC(N)=O)C(=O)N[C@@H](CCCCN)C(=O)N[C@@H](CCCCN)C(=O)N[C@@H](CCC(N)=O)C(=O)N[C@@H](CCCNC(=N)N)C(=O)N[C@@H](CCC(=O)O)C(=O)N[C@@H](CCC(N)=O)C(=O)N[C@@H](C)C(=O)N[C@@H](CCC(=O)O)C(=O)N[C@H](C(=O)N[C@@H](CC(N)=O)C(=O)N[C@@H](CCCCN)C(=O)N[C@@H](CCC(N)=O)C(=O)N[C@H](C(=O)N[C@@H](CC(C)C)C(=O)N[C@@H](C)C(=O)N[C@@H](CCC(N)=O)C(=O)N[C@H](C(N)=O)C(C)C)[C@@H](C)CC)[C@@H](C)O)[C@@H](C)CC)C(C)C)C(C)C [compound 69] (H-IVLSLDVPIKLK([AEEA-AEEA-γGlu-C18 diacid])K[Aib]LLEQERQKKQREQAETNKQILAQV-NH2; N-terminus assumed) |
| 8.72 nM | 0.91 nM | > 1000 nM | 3.03% |  | CC[C@H](C)[C@H](N)C(=O)N[C@H](C(=O)N[C@@H](CC(C)C)C(=O)N[C@@H](CO)C(=O)N[C@@H](CC(C)C)C(=O)N[C@@H](CC(=O)O)C(=O)N[C@H](C(=O)N1CCC[C@H]1C(=O)N[C@H](C(=O)N[C@@H](CCCCN)C(=O)N[C@@H](CC(C)C)C(=O)N[C@@H](CCCCNC(=O)COCCOCCNC(=O)COCCOCCNC(=O)CC[C@H](NC(=O)CCCCCCCCCCCCCCCCC(=O)O)C(=O)O)C(=O)N[C@@H](CCC(N)=O)C(=O)N[C@H](C(=O)N[C@@H](CC(C)C)C(=O)N[C@@H](CC(C)C)C(=O)N[C@@H](CCC(=O)O)C(=O)N[C@@H](CCC(N)=O)C(=O)N[C@@H](CCC(=O)O)C(=O)N[C@@H](CCCNC(=N)N)C(=O)N[C@@H](CCC(N)=O)C(=O)N[C@@H](CCCCN)C(=O)N[C@@H](CCCCN)C(=O)N[C@@H](CCC(N)=O)C(=O)N[C@@H](CCCNC(=N)N)C(=O)N[C@@H](CCC(=O)O)C(=O)N[C@@H](CCC(N)=O)C(=O)N[C@@H](C)C(=O)N[C@@H](CCC(=O)O)C(=O)N[C@H](C(=O)N[C@@H](CC(N)=O)C(=O)NC(C)(C)C(=O)N[C@@H](CCC(N)=O)C(=O)N[C@H](C(=O)N[C@@H](CC(C)C)C(=O)N[C@@H](C)C(=O)N[C@@H](CCC(N)=O)C(=O)N[C@H](C(N)=O)C(C)C)[C@@H](C)CC)[C@@H](C)O)[C@@H](C)CC)[C@@H](C)CC)C(C)C)C(C)C [compound 70] (H-IVLSLDVPIKLK([AEEA-AEEA-γGlu-C18 diacid])QILLEQERQKKQREQAETN[Aib]QILAQV-NH2; N-terminus assumed) |
| 5.2 nM | 0.9 nM | > 1000 nM | 12.7% | 92.5 nM | CC[C@H](C)[C@H](N)C(=O)N[C@H](C(=O)N[C@@H](CC(C)C)C(=O)N[C@@H](CO)C(=O)N[C@@H](CC(C)C)C(=O)N[C@@H](CC(=O)O)C(=O)N[C@H](C(=O)N1CCC[C@H]1C(=O)N[C@H](C(=O)N[C@@H](CCCCN)C(=O)N[C@@H](CC(C)C)C(=O)N[C@@H](CCCCNC(=O)COCCOCCNC(=O)COCCOCCNC(=O)CC[C@H](NC(=O)CCCCCCCCCCCCCCCCCCC(=O)O)C(=O)O)C(=O)N[C@@H](CCC(N)=O)C(=O)N[C@H](C(=O)N[C@@H](CC(C)C)C(=O)N[C@@H](CC(C)C)C(=O)N[C@@H](CCC(=O)O)C(=O)N[C@@H](CCC(N)=O)C(=O)N[C@@H](CCC(=O)O)C(=O)N[C@@H](CCCNC(=N)N)C(=O)N[C@@H](CCC(N)=O)C(=O)N[C@@H](CCCCN)C(=O)N[C@@H](CCCCN)C(=O)N[C@@H](CCC(N)=O)C(=O)N[C@@H](CCCNC(=N)N)C(=O)N[C@@H](CCC(=O)O)C(=O)N[C@@H](CCC(N)=O)C(=O)N[C@@H](C)C(=O)N[C@@H](CCC(=O)O)C(=O)N[C@H](C(=O)N[C@@H](CC(N)=O)C(=O)NC(C)(C)C(=O)N[C@@H](CCC(N)=O)C(=O)N[C@H](C(=O)N[C@@H](CC(C)C)C(=O)N[C@@H](C)C(=O)N[C@@H](CCC(N)=O)C(=O)N[C@H](C(N)=O)C(C)C)[C@@H](C)CC)[C@@H](C)O)[C@@H](C)CC)[C@@H](C)O)C(C)C)C(C)C [compound 80] (H-IVLSLDVPTKLK([AEEA-AEEA-γGlu-C20 diacid])QILLEQERQKKQREQAETN[Aib]QILAQV-NH2) |
| 0.73 nM | 0.1 nM | > 1000 nM | 0.14% | 3.58 nM | CC[C@H](C)[C@H](N)C(=O)N[C@H](C(=O)N[C@@H](CC(C)C)C(=O)N[C@@H](CO)C(=O)N[C@@H](CC(C)C)C(=O)N[C@@H](CC(=O)O)C(=O)N[C@H](C(=O)N1CCC[C@H]1C(=O)N[C@H](C(=O)N[C@@H](CCCCN)C(=O)N[C@@H](CC(C)C)C(=O)N[C@@H](CCCCNC(=O)COCCOCCNC(=O)COCCOCCNC(=O)CC[C@H](NC(=O)CCCCCCCCCCCCCCCCC(=O)O)C(=O)O)C(=O)N[C@@H](CCC(N)=O)C(=O)N[C@H](C(=O)N[C@@H](CC(C)C)C(=O)N[C@@H](CC(C)C)C(=O)N[C@@H](CCCCN)C(=O)N[C@@H](CCC(N)=O)C(=O)N[C@@H](CCC(=O)O)C(=O)N[C@@H](CCCNC(=N)N)C(=O)N[C@@H](CCC(N)=O)C(=O)N[C@@H](CCCCN)C(=O)N[C@@H](CCCCN)C(=O)N[C@@H](CCC(N)=O)C(=O)N[C@@H](CCCNC(=N)N)C(=O)N[C@@H](CCC(=O)O)C(=O)N[C@@H](CCC(N)=O)C(=O)N[C@@H](C)C(=O)N[C@@H](CCC(=O)O)C(=O)N[C@H](C(=O)N[C@@H](CC(N)=O)C(=O)N[C@@H](CCCCN)C(=O)N[C@@H](CCC(N)=O)C(=O)N[C@H](C(=O)N[C@@H](CC(C)C)C(=O)N[C@@H](C)C(=O)N[C@@H](CCC(N)=O)C(=O)N[C@H](C(N)=O)C(C)C)[C@@H](C)CC)[C@@H](C)O)[C@@H](C)CC)[C@@H](C)CC)C(C)C)C(C)C [compound 85] (H-IVLSLDVPIKLK([AEEA-AEEA-γGlu-C18 diacid])QILLKQERQKKQREQAETNKQILAQV-NH2; N-terminus assumed) |

From patent US12679878B2, “CRF2 receptor agonists and their use in therapy” (SANOFI, priority 2020, dated 2026)
